From patent EP0562849A2, “Steroid derivatives” (priority 1992, dated 1993)
Values joined by “and” are separate entries in the source; they are usually repeats but may differ in a detail not shown here. Equal values may be shown once. Read-outs that look alike come from different tables or passages of the source.

Test system: human LDL receptor promoter
Assay: in vitro Luciferase Activity Test (LDL receptor promoter-luciferase reporter in recombinant CHO cells)
Format: cell-based
Design: MED: unit not given here
Settings: for Emax: Homo sapiens, CHO, read-out: MA%; for Emax / MA%: maximum activity (%) over control; for MED: minimum effective dose (molar concentration, unit not given), 24 hr, assay medium with 0.5 µg/ml 25-hydroxycholesterol; for RED: relative effective dose compared to compound of Example 4, below one = more active
Experimental: A 1546 base pair sequence of the human LDL receptor promoter was amplified using the polymerase chain reaction. A reaction mixture containing 20 pMoles each of the synthetic oligonucleotides 5'-[…]-3' (Seq. I.D. No: 1) and 5'-AAG-[…]-3', (Seq. I.D. No:2) 1 µg human genomic DNA purified from the adenocarcinoma cell line P3UCLA, 200 µM each of dATP, dGTP, dCTP, and TTP, 2.5 units of Taq DNA polymerase, 10mM Tris-HCI pH 8.3, 50 mM KCI, […], 0.1% gelatin in a final volume of 100 µl was subjected to 30 cycles of 15 sec at 96°C, 30 sec at 55°C, and 1 min at 72°C. The material was subject to gel electrophoresis on a 1% agarose gel and the 1546 base pair band was isolated and restriction enzyme digested with Hind III and Nde I. This fragment was ligated into the plasmid pSP72 (ProMega Biotech), which had previously been restriction enzyme nuclease digested with Hind III and Nde I. The resulting vector, pNLDLRP, was restriction endonulease digested with Ndel and Hind III and the material was again run on a 1% agarose gel to reisolate the 1546 bp LDL receptor sequence.
Plasmid vector PSv2 was constructed by digesting plasmid pSv2-globin with Hind III and Bgl II then ligating an Nrul-Xhol linker into the vector. Plasmid pSv2 globin is disclosed in U.S. Patent No. 4,775,624, the entire teaching of which is herein incorporated by reference. The linker contained the following sequences: [formula] (Seq. I.D. No: 3), and [formula] ' (Seq. I.D. No:4).
The resulting vector was designated pSv2-H NXB because it contained a […], an Nrul site, an Xhol site and a Bgl site. The Hind III-Bgl II fragment of plasmid pAlc4(NRRL B-18783), which contains the firefly luciferase gene, was then ligated into the Hin III-Bgl site of plasmid pSv2-HNXB. A neomycin resistance-conforming gene was then ligated into the Bam HI site of the resultant plasmid to form plasmid pSv2.
A 1546 base pair fragment was isolated and cloned into a Ndel and Hind III (partial) restriction digested vector pSv2 containing the firefly luciferase reporter gene and a gene for neomycin resistance. The resulting vector, pLDL-Luc1 Neo-10, contains the human LDL receptor promoter driving expression of the firefly luciferase gene, a gene coding for neomycin resistance, ampicillin resistant marker and an origin of replication.
Plasmid pLDL-Luc 1 Neo-10 was used to stably transfect Chinese Hamster Ovary cells using a Lipofection Reagent kit and procedure from Gibco BRL Research Products Division Life Technologies Inc. Transformants were selected by picking individual colonies grown in Dulbecco's modified Eagle's medium supplimented with 10% fetal bovine serum and containing 500 µg per ml […]. […] Clone S27/B30 was used for subsequent screening.
In developing a cell based screen it is important to have a negative control. The viral SV40 promoter is ideal for this purpose in that it has a number of SP1 elements that enhance gene transcription. These elements are not under the control of end product repression; but they do have a high degree of sequence homology with the 16 base pair long sterol response element found in the LDL receptor promoter. The SV40 promoter should therefore be a sensitive mechanism to screen out agents that induce nonspecific transcription.
Chinese Hamster Ovary cells were stably cotransfected with a vector pSV2AL-A 5' containing the SV40 promoter driving expression of the firefly luciferase gene and a second vector pSV2 NeoBam containing a neomycin resistant marker. Transfections were carried out using the Lipofectin Reagent kit and procedure from Gibco BRL Research Products Division Life Technologies Inc. Transformants were selected by picking individual colonies grown in Dulbecco's modified Eagle's medium supplemented with 10% fetal bovine serum and containing 500 µg per ml of geneticin. Individual clones were selected, lysed and assayed for luciferase production. […]

[1] = NA is not active, 30% luciferase activity cutoff point (footnote 1)
[2] = tests using 30% luciferase activity cutoff point (footnote 1)
[3] = 30% luciferase activity cutoff point (footnote 1)
[4] = 15% luciferase activity cutoff point (footnote 2)
[5] = tests using 15% luciferase activity cutoff point (footnote 2)

Molecule: C=CC[C@@H]1[C@H](O)CC[C@@]2(C)[C@H]1CC[C@@H]1[C@@H]2CC[C@]2(C)[C@@H]([C@H](C)/C=C/[C@@H](CC)C(C)C)CC[C@@H]12 [Example 98, (3a, 4a, 5a, 22E)-4-(2-propenyl)-stigmast-22-en-3-ol]
- Emax [1]: 66%
- MED [2]: 22
- RED [3]: 2.0

Molecule: CCCC[C@@H]1[C@H](O)CC[C@@]2(C)[C@H]1CC[C@@H]1[C@@H]2CC[C@]2(C)[C@@H]([C@H](C)CCCC(C)C)CC[C@@H]12 [Example 7, [4a,5a]-4-butylcholestan-3a-ol]
- Emax [4]: 46%
- MA% [4]: 30%

Molecule: CC(C)CCC[C@@H](C)[C@H]1CC[C@H]2[C@@H]3CCC4[C@H](Cc5ccc(CO)cc5)[C@H](O)CC[C@]4(C)[C@H]3CC[C@]12C (stereo partly shown) [Example 33, 4a-(4-hydroxymethylbenzyl)cholestan-3a-ol]
- Emax [4]: 28%
- MED [5]: 9.8
- RED [4]: 4.3

Molecule: C/C=C/C[C@@H]1[C@@H](NC(C)=O)CC[C@@]2(C)[C@H]1CC[C@@H]1[C@@H]2CC[C@]2(C)[C@@H]([C@H](C)CCCC(C)C)CC[C@@H]12 [Example 10, [4a(E),5a]-4-(2-butenyl)-3b acetamidocholestane]
- Emax [1]: 55%
- MED [2]: 10.3
- RED [3]: 4.5

Molecule: C[C@H](CCCN(C)C)[C@H]1CC[C@H]2[C@@H]3[C@H](O)C[C@@H]4C[C@H](O)CC[C@]4(C)[C@H]3CC[C@]12C [Example 54, 3a,7a-dihydroxy-25-azacoprostane]
- MA% [1]: 102% and 92%
- MED [2]: 12.3

Molecule: C=C(Br)C[C@@H]1[C@H](O)CC[C@@]2(C)[C@H]1CC[C@@H]1[C@@H]2CC[C@]2(C)[C@@H]([C@H](C)CCCC(C)C)CC[C@@H]12 [Example 93, (3a,4a,5a)-4-(2-bromo-2-propenyl)cholestan-3-ol]
- Emax [1]: 131%
- MED [2]: 4.9
- RED [3]: 0.43

Molecule: C=C(Cl)C[C@@H]1[C@H](O)CC[C@@]2(C)[C@H]1CC[C@@H]1[C@@H]2CC[C@]2(C)[C@@H]([C@H](C)CCCC(C)C)CC[C@@H]12 [Example 91, (3a,4a,5a)-4-(2-chloro-2-propenyl)cholestan-3-ol]
- Emax [1]: 96%
- MED [2]: 2.7
- RED [3]: 0.24

Molecule: C[C@H](CCCN(C)C)[C@H]1CC[C@H]2[C@@H]3[C@H](O)C[C@@H]4C[C@H](O)CC[C@]4(C)[C@H]3C[C@H](O)[C@]12C [Example 53, 3a,7a,12a-trihydroxy-25-azacoprostane]
- MA% [1]: 57% and 99%

Molecule: C[C@H](CCCN(C)C)[C@H]1CC[C@H]2[C@@H]3CC[C@@H]4C[C@H](O)CC[C@]4(C)[C@H]3CC[C@]12C [Example 51, 3a-hydroxy-25-azacoprostane]
- Emax [4]: 173%
- Emax [1]: 112%
- MED [5]: 1.28
- MED [2]: 6.4
- RED [4]: 1.16
- RED [3]: 1.13

Molecule: CC(C)CCC[C@@H](C)[C@H]1CC[C@H]2[C@@H]3CCC4[C@H](Cc5ccc(Cl)cc5)[C@H](O)CC[C@]4(C)[C@H]3CC[C@]12C (stereo partly shown) [Example 31, 4a-(4-chlorobenzyl)cholestan-3a-ol]
- Emax [4]: 46%
- MED [5]: 9.7
- RED [4]: 4.3

Molecule: C=CC[C@@H]1[C@H](O)CC[C@@]2(C)[C@H]1CC[C@@H]1[C@@H]2CC[C@]2(C)[C@@H]([C@H](C)CC[C@@H](CC)C(C)C)CC[C@@H]12 [Example 96, (3a, 4a, 5a)-4-(2-propenyl)-stigmastan-3-ol]
- Emax [1]: 93%
- MED [2]: 8.3
- RED [3]: 0.73

Molecule: CC(C)CCC[C@@H](C)[C@H]1CC[C@H]2[C@@H]3CCC4[C@H](Cc5ccccc5)[C@H](O)CC[C@]4(C)[C@H]3CC[C@]12C (stereo partly shown) [Example 22, 4a-benzylcholestan-3a-ol]
- Emax [1]: 18%

Molecule: C=CC[C@@H]1C(=O)/C(=C/O)C[C@]2(C)[C@H]3CC[C@]4(C)[C@@H]([C@H](C)CCCC(C)C)CC[C@H]4[C@@H]3CC[C@@H]12 [Example 73, 4a-2-(hydroxymethylene)-4-(2-propenyl)cholestan-3-one]
- Emax [4]: 27%
- MED [5]: 11.0
- RED [4]: 0.97

Molecule: C=CC[C@@H]1[C@H](O)CC[C@@]2(C)[C@H]1CC[C@@H]1[C@@H]2CC[C@]2(C)[C@@H]([C@H](C)CCCN(C)C)CC[C@@H]12 [Example 44, 4a-(2-propenyl)-cholan-24-N,N-dimethylamino-3a-ol]
- Emax [4]: 62%
- MA% [4]: 78%
- MA% [1]: 77% and 56%

Molecule: C[C@H](CCCN(C)C)[C@H]1CC[C@H]2[C@@H]3[C@H](O)C[C@@H]4C[C@H](O)CC[C@]4(C)[C@H]3CC[C@]12C [Example 52, 3a,7a-dihydroxy-25-azacoprostane]
- MA% [1]: 121% and 85% and 136% and 86% and 84%

Molecule: C=CC[C@@H]1[C@H](O)CC[C@@]2(C)[C@H]1CC[C@@H]1[C@@H]2CC[C@]2(C)C(OCCCCCCCC)CC[C@@H]12 (stereo partly shown) [Example 65, (3a,4a,5a)-17-(octyloxy)-4-(2-propenyl)androstan-3-ol]
- MED [5]: 11.3 and 22.5

Molecule: CC(C)CCC[C@@H](C)[C@H]1CC[C@H]2[C@@H]3CCC4[C@H](Cc5ccc(C(=O)O)cc5)[C@H](O)CC[C@]4(C)[C@H]3CC[C@]12C (stereo partly shown) [Example 34, 4a-(4-carboxybenzyl)cholestan-3a-ol]
- Emax [4]: 38%
- MED [5]: 4.8
- RED [4]: 2.1

Molecule: C/C=C/C[C@@H]1[C@H](N)CC[C@@]2(C)[C@H]1CC[C@@H]1[C@@H]2CC[C@]2(C)[C@@H]([C@H](C)CCCC(C)C)CC[C@@H]12 [Example 8, [4a(E), 5a]-4-(2-butenyl)-3a-aminocholestone]
- Emax [1]: 51%
- MED [2]: 5.6
- RED [3]: 2.50

Molecule: C=CC[C@H]1C2=CC[C@H]3[C@@H]4CC[C@H]([C@H](C)CCCC(C)C)[C@@]4(C)CC[C@@H]3[C@@]2(C)CC[C@H]1O [Example 40, 4a-(2-propenyl)-5-cholesten-3a-ol]
- Emax [4]: 99%
- MA% [1]: 110% and 71%
- MED [5]: 2.3
- RED [4]: 1.0
- RED [3]: 0.51 and 0.52

Molecule: C/C=C/C[C@@H]1C(=O)CC[C@]2(C)[C@H]3CC[C@]4(C)[C@@H]([C@H](C)CCCC(C)(C)O)CC[C@H]4[C@@H]3CC[C@@H]12 [Example 3, [4a(E),5a]-4-(2-butenyl)-25-hydroxycholestan-3-one]
- Emax [1]: 144%
- MED [2]: 2.2
- RED [3]: 0.97

Molecule: CC(C)CCC[C@@H](C)[C@H]1CC[C@H]2[C@@H]3CCC4[C@H](Cc5ccc(OCc6ccccc6)cc5)[C@H](O)CC[C@]4(C)[C@H]3CC[C@]12C (stereo partly shown) [Example 32, 4a-(4-benzyloxybenzyl)cholestan-3a-ol]
- Emax [4]: 36%
- MED [5]: 8.6
- RED [4]: 3.8

Molecule: [4a(E),5α]-4-(2-butenyl)-25-hydroxycholestan-3a-ol [Example 6]
- MA% [4]: 72% and 67%
- MED [5]: 21.7
- RED [4]: 0.96 and 1.90

Molecule: C=CC[C@H]1C2CC[C@@H]3[C@H](CC[C@]4(C)C(OCCCC(C)(C)C)CC[C@@H]34)[C@@]2(C)CC[C@H]1O (stereo partly drawn) [Example 69, (3α,4α)-17-[(4,4-dimethylpentyl)oxy]-4-(2-propenyl)-androstan-3-ol]
- Emax [4]: 48%
- Emax [1]: 39%
- MA% [1]: 47%
- MED [5]: 46.5
- RED [4]: 20.5
- RED [3]: 16.4 and 8.2
